From PubChem BioAssay AID2060496 (Molecular Pharmacology Branch, DTP, NCI, 2025)

Tested on: 276233-004-R-J1-PDC complex spheroid viability
Assay: Anticancer human tumor 276233-004-R-J1-PDC patient-derived colon adenocarcinoma cell line growth inhibition [GQUAD]
Settings: for IC50: curve of first compound; for viability, T/C: stronger effect = lower value
How it was run: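 Tumor cells were grown as complex spheroids with HUVEC endothelial cells and mesenchymal stem cells as stroma. G-quadruplex stabilizers were combined with targeted agents over half-log dilutions from near the clinical Cmax, or from 10 microM.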

[1] = second compound 0.0316 µM, first compound 0.0316 µM
[2] = second compound 0.0316 µM, first compound 0.1 µM
[3] = second compound 0.0316 µM, first compound 0.316 µM
[4] = second compound 0.0316 µM, first compound 1 µM
[5] = second compound 0.0316 µM, first compound 3.16 µM
[6] = second compound 0.0316 µM, first compound 10 µM
[7] = second compound 0.1 µM, first compound 0.0316 µM
[8] = second compound 0.1 µM, first compound 0.1 µM
[9] = second compound 0.1 µM, first compound 0.316 µM
[10] = second compound 0.1 µM, first compound 1 µM
[11] = second compound 0.1 µM, first compound 3.16 µM
[12] = second compound 0.1 µM, first compound 10 µM
[13] = second compound 0.316 µM, first compound 0.0316 µM
[14] = second compound 0.316 µM, first compound 0.1 µM
[15] = second compound 0.316 µM, first compound 0.316 µM
[16] = second compound 0.316 µM, first compound 1 µM
[17] = second compound 0.316 µM, first compound 3.16 µM
[18] = second compound 0.316 µM, first compound 10 µM
[19] = second compound 1 µM, first compound 0.0316 µM
[20] = second compound 1 µM, first compound 0.1 µM
[21] = second compound 1 µM, first compound 0.316 µM
[22] = second compound 1 µM, first compound 1 µM
[23] = second compound 1 µM, first compound 3.16 µM
[24] = second compound 1 µM, first compound 10 µM
[25] = second compound 3.16 µM, first compound 0.0316 µM
[26] = second compound 3.16 µM, first compound 0.1 µM
[27] = second compound 3.16 µM, first compound 0.316 µM
[28] = second compound 3.16 µM, first compound 1 µM
[29] = second compound 3.16 µM, first compound 3.16 µM
[30] = second compound 3.16 µM, first compound 10 µM
[31] = second compound 10 µM, first compound 0.0316 µM
[32] = second compound 10 µM, first compound 0.1 µM
[33] = second compound 10 µM, first compound 0.316 µM
[34] = second compound 10 µM, first compound 1 µM
[35] = second compound 10 µM, first compound 3.16 µM
[36] = second compound 10 µM, first compound 10 µM
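Note: spheroids exposed to drugs for seven days.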
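Throughout, for viability, T/C: 100% = DMSO vehicle control viability.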

O=c1[nH]cc(F)c(=O)[nH]1 + CN(C)c1ccc(Nc2c3ccc(NC(=O)CCN4CCCC4)cc3nc3cc(NC(=O)CCN4CCCC4)ccc23)cc1
IC50 (second compound 0.0316 µM): > 10 µM
IC50 (second compound 0.1 µM): > 10 µM
IC50 (second compound 0.316 µM): > 10 µM
IC50 (second compound 1 µM): > 10 µM
IC50 (second compound 3.16 µM): > 10 µM
IC50 (second compound 10 µM): > 10 µM
viability, T/C [1]: 93.7%
viability, T/C [2]: 83.7%
viability, T/C [3]: 108%
viability, T/C [4]: 108%
viability, T/C [5]: 90.2%
viability, T/C [6]: 103%
viability, T/C [7]: 92%
viability, T/C [8]: 76.5%
viability, T/C [9]: 80.5%
viability, T/C [10]: 88.5%
viability, T/C [11]: 75.1%
viability, T/C [12]: 103%
viability, T/C [13]: 69.1%
viability, T/C [14]: 62.3%
viability, T/C [15]: 60.1%
viability, T/C [16]: 61%
viability, T/C [17]: 72.2%
viability, T/C [18]: 61.8%
viability, T/C [19]: 66.8%
viability, T/C [20]: 62.9%
viability, T/C [21]: 63.7%
viability, T/C [22]: 66.2%
viability, T/C [23]: 52.2%
viability, T/C [24]: 59.3%
viability, T/C [25]: 59.3%
viability, T/C [26]: 58.5%
viability, T/C [27]: 54.9%
viability, T/C [28]: 57.9%
viability, T/C [29]: 69.8%
viability, T/C [30]: 62.4%
viability, T/C [31]: 49.8%
viability, T/C [32]: 54.9%
viability, T/C [33]: 51.5%
viability, T/C [34]: 46.1%
viability, T/C [35]: 51.3%
viability, T/C [36]: 59.1%

O=C(c1cc(Cc2n[nH]c(=O)c3ccccc23)ccc1F)N1CCN(C(=O)C2CC2)CC1 + Cc1cnc(CNC(=O)c2c(=O)c3ccc(N4CCCN(C)CC4)nc3n3c2sc2ccccc23)cn1
IC50 (second compound 0.0316 µM): > 10 µM
IC50 (second compound 0.1 µM): > 10 µM
IC50 (second compound 0.316 µM): > 10 µM
IC50 (second compound 1 µM): > 10 µM
IC50 (second compound 3.16 µM): > 10 µM
IC50 (second compound 10 µM): > 10 µM
viability, T/C [1]: 80.1%
viability, T/C [2]: 85%
viability, T/C [3]: 89.3%
viability, T/C [4]: 79.3%
viability, T/C [5]: 90.8%
viability, T/C [6]: 91.6%
viability, T/C [7]: 81.1%
viability, T/C [8]: 92.8%
viability, T/C [9]: 82.2%
viability, T/C [10]: 83.8%
viability, T/C [11]: 85.5%
viability, T/C [12]: 83%
viability, T/C [13]: 96%
viability, T/C [14]: 91.4%
viability, T/C [15]: 83.4%
viability, T/C [16]: 81.8%
viability, T/C [17]: 96.7%
viability, T/C [18]: 73.5%
viability, T/C [19]: 69.9%
viability, T/C [20]: 77.1%
viability, T/C [21]: 91.2%
viability, T/C [22]: 75.5%
viability, T/C [23]: 83.8%
viability, T/C [24]: 67.3%
viability, T/C [25]: 76.9%
viability, T/C [26]: 70%
viability, T/C [27]: 61.1%
viability, T/C [28]: 68.4%
viability, T/C [29]: 77.2%
viability, T/C [30]: 72.7%
viability, T/C [31]: 74.5%
viability, T/C [32]: 68.1%
viability, T/C [33]: 80.2%
viability, T/C [34]: 62.5%
viability, T/C [35]: 77.8%
viability, T/C [36]: 53.2%
